# According to patent US20230220105A1, “TUMOR ACTIVATED T CELL ENGAGERS AND METHODS OF USE THEREOF” (Janux Therapeutics, Inc., priority 2019, published 2023):
# Experiments:
# TCR-1 = assay: Inhibitory peptide specificity evaluation (BLI); type: binding; conditions: 100 uM TCR on Peptide-5 saturated biosensor
# Method: (§1) Potent inhibitory peptides were tested for TCR specific binding. […] This family of TCRs differ in sequence by point mutations in the CDR domains know to contribute to binding affinity and specificity for cognate MAGE-A3 pMHC. […] TCRs were associated at the extreme concentration of 100 uM onto the inhibitory peptide loaded biosensor. In parallel, 100 uM TCRs were associated on a blank control sensor to establish background signal related to non-specific binding of the TCRs. Association and dissociation signals were monitored in real-time.
# TCR-2 = assay: Inhibitory peptide specificity evaluation (BLI); type: binding; conditions: 100 uM TCR on Peptide-5 saturated biosensor
# Method: as §1
# TCR-4 = assay: Inhibitory peptide specificity evaluation (BLI); type: binding; conditions: 100 uM TCR on Peptide-5 saturated biosensor
# Method: as §1
# TCR-3 = assay: Inhibitory peptide specificity evaluation (BLI); type: binding; conditions: 100 uM TCR on Peptide-5 saturated biosensor
# Method: as §1
# MAGE-A3 TCR (TCR-1) [1] = assay: Kinetic binding of TCR to peptides (Octet BLI); conditions: Table 3; Ala mutants of Peptide-5 and controls
# Method: BLI based kinetic binding of TCR to peptides was measured using a ForteBio Octet RED96 instrument. Biotinylated peptides were first directly captured on streptavidin biosensors. Sensors were quenched using excess biocytin and then baselined in buffer. A dilution series of TCR was made and associated onto the peptide loaded biosensor. Association and dissociation signals were monitored in real-time. Signals were fit to a 1:1 binding model in order to derive binding constants, kon and koff, as well as KD.
# [2] = target: TCR-1 binding to MAGE-A3 pMHC; assay: Inhibition of equilibrium binding of TCR to its cognate pMHC (ELISA)
# Method: Inhibition of TCR binding to its cognate pMHC was also measured in an ELISA format. Biotinylated pMHC was captured on neutravidin coated plates, quenched using excess biocytin, and washed. Inhibitory peptide was titrated in a half-log dilution series starting from 100 uM and pre-incubated with a constant concentration of 1 nM TCR. Inhibitory peptide and TCR mixtures were then incubated on the pMHC captured plates. A secondary HRP antibody conjugate that recognized the histag of the TCR was then used to detect the plate bound TCR. […] Dose dependent decrease of signal was indicative of peptides that compete for TCR binding to its cognate pMHC.
# [3] = system: TCR-1 binding to MAGE-A3 pMHC; assay: Inhibition of kinetic binding of TCR to its cognate pMHC (BLI); conditions: Table 3
# Method: First, biotinylated pMHC was captured on streptavidin biosensors. Sensors were quenched using excess biocytin and then baselined in buffer. Inhibitory peptide was titrated in a two fold dilution series starting from 100 uM and pre-incubated with a constant concentration of 50 nM TCR. Peptide and TCR mixtures were then associated onto the pMHC loaded biosensor. Zero concentration of inhibitory peptide or zero concentration of TCR were used as controls. Association and dissociation signals were monitored in real-time. The maximal association signal was normalized from 100% (0 uM inhibitory peptide control) to 0% (0 nM TCR control) and plotted versus log-scale inhibitory peptide concentration.
# neutravidin alone = neutravidin alone (Gallus gallus, UniProt P02701); assay: Phagemid ELISA, neutravidin background; type: binding; conditions: clonal phage displaying the peptide; ELISA signal on neutravidin alone
# Method: The next day the deep well plates were centrifuged to separate the soluble phagemid from the E. coli cells. The phagemid containing supernatants were then combined with PBS-Tween 20 (0.05%) + BSA (1%) blocking buffer and incubated in ELISA wells containing Neutravidin captured biotin-conjugated target or Neutravidin alone. After binding at 4 degrees the plates were washed, and specifically bound phage were detected by anti-m13 HRP conjugated antibodies using standard TMB-based chromogenic ELISA procedures. Daughter plates or individual wells were subjected to standard DNA sequencing for clonal peptide sequence identification.
# The next day the deep well plates were centrifuged to separate the soluble phagemid from the E. coli cells. The phagemid containing supernatants were then combined with PBS-Tween 20 (0.05%) + BSA (1%) pH neutral blocking buffer and incubated in previously TCR coated and blocked wells. After binding at 4° C. the plates were washed and specifically bound phage were detected by anti-m13 HRP conjugated antibodies using standard TMB-based chromogenic ELISA procedures (FIG. 17B). Daughter plates or individual wells were subjected to standard DNA sequencing for peptide identification.
# MAGE-A3 TCR (TCR-1) [4] = assay: Equilibrium binding of TCR to peptides (ELISA); conditions: for EC50: Table 3
# Method: Peptide binding was also examined in an ELISA format. Biotinylated peptides were captured on neutravidin coated plates. TCR was then prepared in a half-log dilution series starting from 10 uM and titrated onto the peptide captured plates. […] The concentration of TCR required to observe half maximal binding signal (EC50) was then calculated using Graphpad Prism.
# Chain of neutravidin alone (P02701 25-152): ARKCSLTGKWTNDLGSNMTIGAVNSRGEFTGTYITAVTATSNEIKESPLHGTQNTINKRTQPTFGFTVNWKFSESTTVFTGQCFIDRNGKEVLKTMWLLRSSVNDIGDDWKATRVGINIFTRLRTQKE
Compound,Octet BLI Binds TCR (MAGE-A3 TCR (TCR-1) [1]),Octet BLI Competes at 100 uM [3],EC50 (MAGE-A3 TCR (TCR-1) [4]) [µM],further results
CC(C)[C@H](NC(=O)[C@@H]1CSSC[C@H](NC(=O)CNC(=O)CNC(=O)CN)C(=O)N[C@@H](Cc2ccccc2)C(=O)N[C@@H](C(C)C)C(=O)N[C@@H](CO)C(=O)N2CCC[C@H]2C(=O)N[C@@H](C)C(=O)N[C@@H]([C@@H](C)O)C(=O)NCC(=O)N[C@@H](Cc2ccccc2)C(=O)N[C@@H]([C@@H](C)O)C(=O)N[C@@H](Cc2c[nH]c3ccccc23)C(=O)N1)C(=O)NCC(=O)NCC(=O)NCC(=O)NCC(=O)N[C@@H](CO)C(=O)NCCOCCOCCOCCOCCC(=O)N[C@@H](CCCCNC(=O)CCCC[C@@H]1SC[C@@H]2NC(=O)N[C@@H]21)C(N)=O [Peptide-17],–,–,–,Phage ELISA NAv bkgd (neutravidin alone): 0.13
CC(C)[C@H](NC(=O)CNC(=O)CN)C(=O)N[C@@H](CO)C(=O)N[C@@H](C)C(=O)N[C@@H](CCCCN)C(=O)N[C@@H](CC(=O)O)C(=O)N[C@H](C(=O)N[C@@H](Cc1ccc(O)cc1)C(=O)N[C@@H](CC(=O)O)C(=O)N[C@@H](CCC(=O)O)C(=O)N[C@@H](C)C(=O)N[C@@H](Cc1ccccc1)C(=O)N[C@@H](CS)C(=O)N[C@@H](Cc1c[nH]c2ccccc12)C(=O)N[C@H](C(=O)NCC(=O)NCC(=O)NCC(=O)NCC(=O)N[C@@H](CO)C(=O)NCCOCCOCCOCCOCCC(=O)N[C@@H](CCCCNC(=O)CCCC[C@@H]1SC[C@@H]2NC(=O)N[C@@H]21)C(N)=O)[C@@H](C)O)C(C)C [Peptide-23],Yes,Yes,> 10,–
CC(C)[C@H](NC(=O)CNC(=O)CN)C(=O)N[C@@H](CO)C(=O)N[C@H]1CSSC[C@@H](C(=O)N[C@@H](Cc2c[nH]c3ccccc23)C(=O)N[C@H](C(=O)NCC(=O)NCC(=O)NCC(=O)NCC(=O)N[C@@H](CO)C(=O)NCCOCCOCCOCCOCCC(=O)N[C@@H](CCCCNC(=O)CCCC[C@@H]2SC[C@@H]3NC(=O)N[C@@H]32)C(N)=O)[C@@H](C)O)NC(=O)[C@H](Cc2ccccc2)NC(=O)[C@H](C)NC(=O)[C@H](CCC(=O)O)NC(=O)[C@H](CC(=O)O)NC(=O)[C@H](Cc2ccc(O)cc2)NC(=O)[C@H](C(C)C)NC(=O)[C@H](CC(=O)O)NC(=O)[C@H](C)NC1=O [Peptide-24],Yes,Yes,–,–
CC(C)[C@H](NC(=O)CNC(=O)CN)C(=O)N[C@@H](CO)C(=O)N[C@H]1CSSC[C@@H](C(=O)N[C@@H](Cc2c[nH]c3ccccc23)C(=O)N[C@@H](C)C(=O)NCC(=O)NCC(=O)NCC(=O)NCC(=O)N[C@@H](CO)C(=O)NCCOCCOCCOCCOCCC(=O)N[C@@H](CCCCNC(=O)CCCC[C@@H]2SC[C@@H]3NC(=O)N[C@@H]32)C(N)=O)NC(=O)[C@H](Cc2ccccc2)NC(=O)[C@H](C)NC(=O)[C@H](CCC(=O)O)NC(=O)[C@H](CC(=O)O)NC(=O)[C@H](Cc2ccc(O)cc2)NC(=O)[C@H](C(C)C)NC(=O)[C@H](CC(=O)O)NC(=O)[C@H](CCCCN)NC1=O [Peptide-33],Yes,Yes,–,–
"ESDPIVAQY [Peptide-35, Titin peptide, linear control absent MHC presentation, reference compound]",No,–,> 10,–
"EVDPIGHLY [Peptide-34, MAGE-A3 antigen peptide, linear control absent MHC presentation, reference compound]",No,–,> 10,"binding to TCR-1, Ala scan and control peptides (MAGE-A3 TCR (TCR-1) [4]; relative to Peptide-5): lack of binding"

# More lines, main results first:
Octet BLI Binds TCR (MAGE-A3 TCR (TCR-1) [1]),Octet BLI Competes at 100 uM [3],EC50 (MAGE-A3 TCR (TCR-1) [4]) [µM],Compound,further results
Yes,Yes,–,CC(C)[C@H](NC(=O)CNC(=O)CN)C(=O)N[C@@H](CO)C(=O)N[C@H]1CSSC[C@@H](C(=O)N[C@@H](Cc2c[nH]c3ccccc23)C(=O)N[C@H](C(=O)NCC(=O)NCC(=O)NCC(=O)NCC(=O)N[C@@H](CO)C(=O)NCCOCCOCCOCCOCCC(=O)N[C@@H](CCCCNC(=O)CCCC[C@@H]2SC[C@@H]3NC(=O)N[C@@H]32)C(N)=O)[C@@H](C)O)NC(=O)[C@H](Cc2ccccc2)NC(=O)[C@H](C)NC(=O)[C@H](CCC(=O)O)NC(=O)[C@H](CC(=O)O)NC(=O)[C@H](Cc2ccc(O)cc2)NC(=O)[C@H](C(C)C)NC(=O)[C@H](CC(=O)O)NC(=O)[C@H](CCCCN)NC1=O [Peptide-5],"binding of Peptide-5 to TCR-1 (TCR-1): readily bound; binding of Peptide-5 to TCR-2 (TCR-2): signal was identical to that of background; binding of Peptide-5 to TCR-4 (TCR-4): signal was identical to that of background; binding of Peptide-5 to TCR-3 (TCR-3): signal was identical to that of background; IC50 ([2]; Table 2, 1 nM TCR): 600 nM; IC50 ([2]; Table 3): 600 nM"
Yes,Yes,–,CC(C)[C@@H]1NC(=O)[C@H](CC(=O)O)NC(=O)[C@H](CCCCN)NC(=O)[C@@H](NC(=O)[C@H](CO)NC(=O)[C@H](C)NC(=O)CNC(=O)CN)CSSC[C@@H](C(=O)N[C@@H](Cc2c[nH]c3ccccc23)C(=O)N[C@H](C(=O)NCC(=O)NCC(=O)NCC(=O)NCC(=O)N[C@@H](CO)C(=O)NCCOCCOCCOCCOCCC(=O)N[C@@H](CCCCNC(=O)CCCC[C@@H]2SC[C@@H]3NC(=O)N[C@@H]32)C(N)=O)[C@@H](C)O)NC(=O)[C@H](Cc2ccccc2)NC(=O)[C@H](C)NC(=O)[C@H](CCC(=O)O)NC(=O)[C@H](CC(=O)O)NC(=O)[C@H](Cc2ccc(O)cc2)NC1=O [Peptide-21],–
Yes,Yes,–,CC(C)[C@H](NC(=O)CNC(=O)CN)C(=O)N[C@@H](CO)C(=O)N[C@H]1CSSC[C@@H](C(=O)N[C@@H](Cc2c[nH]c3ccccc23)C(=O)N[C@H](C(=O)NCC(=O)NCC(=O)NCC(=O)NCC(=O)N[C@@H](CO)C(=O)NCCOCCOCCOCCOCCC(=O)N[C@@H](CCCCNC(=O)CCCC[C@@H]2SC[C@@H]3NC(=O)N[C@@H]32)C(N)=O)[C@@H](C)O)NC(=O)[C@H](Cc2ccccc2)NC(=O)[C@H](C)NC(=O)[C@H](CCC(=O)O)NC(=O)[C@H](C)NC(=O)[C@H](Cc2ccc(O)cc2)NC(=O)[C@H](C(C)C)NC(=O)[C@H](CC(=O)O)NC(=O)[C@H](CCCCN)NC1=O [Peptide-28],–
Weak,–,> 10,CC(C)[C@H](NC(=O)CNC(=O)CN)C(=O)N[C@@H](CO)C(=O)N[C@@H](CS)C(=O)N[C@@H](CCCCN)C(=O)N[C@@H](CC(=O)O)C(=O)N[C@H](C(=O)N[C@@H](Cc1ccc(O)cc1)C(=O)N[C@@H](CC(=O)O)C(=O)N[C@@H](CCC(=O)O)C(=O)N[C@@H](C)C(=O)N[C@@H](Cc1ccccc1)C(=O)N[C@@H](C)C(=O)N[C@@H](Cc1c[nH]c2ccccc12)C(=O)N[C@H](C(=O)NCC(=O)NCC(=O)NCC(=O)NCC(=O)N[C@@H](CO)C(=O)NCCOCCOCCOCCOCCC(=O)N[C@@H](CCCCNC(=O)CCCC[C@@H]1SC[C@@H]2NC(=O)N[C@@H]21)C(N)=O)[C@@H](C)O)C(C)C [Peptide-31],–
Yes,Yes,–,CC(C)[C@H](NC(=O)CNC(=O)CN)C(=O)N[C@@H](CO)C(=O)N[C@H]1CSSC[C@@H](C(=O)N[C@@H](C)C(=O)N[C@H](C(=O)NCC(=O)NCC(=O)NCC(=O)NCC(=O)N[C@@H](CO)C(=O)NCCOCCOCCOCCOCCC(=O)N[C@@H](CCCCNC(=O)CCCC[C@@H]2SC[C@@H]3NC(=O)N[C@@H]32)C(N)=O)[C@@H](C)O)NC(=O)[C@H](Cc2ccccc2)NC(=O)[C@H](C)NC(=O)[C@H](CCC(=O)O)NC(=O)[C@H](CC(=O)O)NC(=O)[C@H](Cc2ccc(O)cc2)NC(=O)[C@H](C(C)C)NC(=O)[C@H](CC(=O)O)NC(=O)[C@H](CCCCN)NC1=O [Peptide-32],–
